{"source": "patent US20190021323A1", "about": "“Use of Gibberellin A5 to Increase the Yield and Quality of Wine Grapes” (UTI Limited Partnership, priority 2016, published 2019)", "key": {"[1]": {"system": "Thompson seedless table grape vines", "conditions": "applied about three weeks before bloom; cited from earlier work"}, "[2]": {"system": "Vitis vinifera L. cv. Malbec", "assay": "Field trial 2014-2015: GA5, GA4, GA4/7 bunch dip or spray on cv. Malbec grapevines (Example 3)", "type": "in vivo", "description": "(§1) A third trial was done in the same vineyard used for the trials outlined in Examples 1 and 2. Grapevines were selected from a clone of Vitis vinifera L. cv. Malbec, planted in 1997 on their own roots in a commercial vineyard located in Gualtallary, Mendoza, Argentina (1450 m above sea level, 69°15′37″ W and 33°23′51″ S). The vines were trained on a vertical trellis system arranged in north-south oriented rows spaced 2 m apart, with 1.20 m between plants within the row. The grapevines were maintained with no soil water restriction during the whole experiment by the use of a drip irrigation system (4 liters per plant per night), and the fruiting vines were protected with anti-hail nets (black polyethylene).\nThe effects of two concentrations (i.e., 10 mg/L and 50 mg/L) of three different gibberellin compositions (GA5, GA4, and a mixture of GA4 and GA7 referred to as “GA4/7”) on berry and bunch development and quality in treated cv. […] All of the treatment solutions, including the water controls, contained 0.1% v/v of the surfactant TRITON®-X and a minimal amount of 96% EtOH to dissolve the various GA5, GA4, and GA4/7 powders (the control treatments also included a minimal amount of 96% EtOH).\nThe effects of GA applications were assessed at two stages of berry development. The first group of test plants was treated at 60 DBV (i.e. 31 DAF) while a second group of test plants was treated at 30 DBV (i.e. 61 DAF). At each application stage, the groups of test plants receiving selected treatments were each divided into two subsets. The developing berry bunches on the first subset of plants for a selected treatment were treated by submerging into a 750-mL volume of the test solution for a period of 15 sec during late afternoon. The second subset of plants was treated with a spray application of 150 mL of test solution per each test plant. The spray applications were made in late afternoon.\nFor each of the two application stages, a randomized complete block design with 14 treatments and 5 blocks was used for a […]. The experimental unit consisted of one plant selected as being “typical” among 6 consecutive plants in a selected row. Each row was a replicate, i.e., a “block”. There were thus 40 experimental units (plants) utilized for each growth regulator. All the grapevines in the 5 replicate rows were pruned to 8 “fruiting” shoots and the crop load on each shoot was thinned to two bunches per shoot at the beginning of the experiment (31 DAF or 60 DBV). One shoot per experimental unit was selected, marked and used for the non-destructive measurements (shoot length, number of leaves and leaf area), while the rest of the shoots were used for berry sampling.\n(§2) At harvest, the two selected and marked bunches from one fruiting shoot per experimental unit, i.e. not used for berry sampling, were collected in nylon bags and weighed. Then the number of berries per bunch was counted.\nSamples of 25 berries per experimental unit were randomly collected in nylon bags (5 berries from each bunch; two top berries, two middle berries, one bottom berry; for each test vine, berries were collected from 5 bunches exposed to the west). These berry samples were taken at 132 DAF (132 DAF being the time of ripe berry harvest). The berries were kept on dry ice to prevent enzyme activity and dehydration and were taken quickly to the laboratory where berry fresh weights (FW) were determined before the berries were stored at −20° C. Then, 15 berries per experimental unit were defrosted at ambient room temperature after which, the skins were separated from fruit pulp and seeds by hand. The fruit pulp was collected in nylon bags, crushed by hand pressing and the relative concentration of sugars (°Brix) was measured in the pulp juice with a PAL-1 digital hand-held refractometer (Atago Co., Ltd., Tokyo, Japan). The °Brix was multiplied by the berries' FW to calculate sugar on a per berry basis (absolute amounts). […]"}, "[3]": {"system": "Vitis vinifera L. cv. Malbec", "assay": "Field trial 2010-2011: GA5 bunch dip on cv. Malbec grapevines (Example 1)", "type": "in vivo", "description": "as §1, with “Grapevines” for “A third trial was done in the same vineyard used for the trials outlined in Examples 1 and 2. Grapevines”\nThe treatments were applied by submerging all of the fruit bunches on each vine in a treatment group in the selected aqueous solution (fruit bunches from control vines were submerged in water). All of the treatment solutions, including the water controls, contained 0.1% v/v of the surfactant TRITON®-X (TRITON is a registered trademark of the Dow Chemical Co., Indianapolis, Ind., USA) and a minimal amount of 95% EtOH to dissolve the GA5 powders (the control treatments also included a minimal amount of 95% EtOH). The treatments were applied three times; 56 days after flowering (DAF; i.e., 35 days before veraison—“DBV”), 70 DAF (i.e., 21 DBV), and 91 DAF (i.e., 0 DBV). The 91 DAF treatment time corresponded to veraison. Each berry bunch on a test vine was submerged in 750 mL of the selected treatment solution for 15 sec during a late afternoon time period.\nA randomized complete block design with 4 treatments and 5 blocks was used during the 2010-2011 production season. The experimental unit consisted of one plant selected as being “typical” among 6 consecutive plants in a selected row. Each row was a replicate, i.e., a “block”. There were thus 5 experimental units (plants) utilized for each treatment, one for each row (block). All the grapevines in the 5 replicate rows were pruned to 8 “fruiting” shoots and the crop load on each shoot was thinned to two bunches per shoot at 40 days after flowering (DAF). One shoot per experimental unit was selected, marked and used for the non-destructive measurements (shoot length, number of leaves and leaf area), while the rest of the shoots were used for berry sampling.\n(§3) Shoot length, number of leaves and midrib (main vein) length of all leaves were measured at: (i) 56 DAF/35 DBV just before application of the first set of treatments, and (ii) 132 DAF (harvest date). At the 132 DAF, all of the leaves from 10 randomly selected shoots were collected in nylon bags, kept on ice to prevent dehydration, and were taken to the laboratory where the length of the leaf midribs, weights of separated leaves, and the weights of 1-cm^2 leaf discs were determined. Then, the leaf areas (LA) were calculated and, based on the weights, a linear regression model between the LA and the midrib length was generated. The correlation coefficient (r^2) was 0.91 and thus the model was used to transform the non-destructive measurements of midrib length into LA values.\nAt 132 DAF, the two selected and marked bunches from one fruiting shoot per experimental unit, i.e. not used for berry sampling, were collected in nylon bags and weighed. Then the number of berries per bunch was counted.\nFinally, in the next year's flowering and fruiting season (early 2012) the number of fruit clusters bunches per shoot were counted in order to assess GA5 treatment effects on return bloom."}, "[4]": {"system": "Vitis vinifera L. cv. Malbec", "assay": "Field trial 2012-2013: GA5 bunch dip once at 30 DBV on cv. Malbec grapevines (Example 2)", "type": "in vivo", "description": "as §1, with “second” for “third”, “trial” for “trials”, “Example 1.” for “Examples 1 and 2.”\nThe treatments were applied by submerging all of the fruit bunches on each vine in a treatment group in the selected aqueous solution (fruit bunches from control vines were submerged in water). All of the treatment solutions, including the water controls, contained 0.1% v/v of the surfactant TRITON®-X and a minimal amount of 95% EtOH to dissolve the GA5 powders (the control treatments also included a minimal amount of 95% EtOH). All treatments were applied once at 30 DBV (i.e. 61 DAF). Each berry bunch on a test vine was submerged in 750 mL of the selected treatment solution for 15 sec during a late afternoon time period.\nA randomized complete block design with 5 treatments and 5 blocks was used during the 2012-2013 production season. The experimental unit consisted of one plant selected as being “typical” among 6 consecutive plants in a selected row. Each row was a replicate, i.e., a “block”. There were thus 5 experimental units (plants) utilized for each treatment, one for each row (block). All the grapevines in the 5 replicate rows were pruned to 8 “fruiting” shoots and the crop load on each shoot was thinned to two bunches per shoot at 40 days after flowering (DAF). One shoot per experimental unit was selected, marked and used for the non-destructive measurements (shoot length, number of leaves and leaf area), while the rest of the shoots were used for berry sampling.\nas §3, with “30” for “56 DAF/35”, “at harvest.” for “132 DAF (harvest date).”, “harvest,” for “the 132 DAF,”\nas §2"}, "[5]": {"conditions": "10 and 50 mg/L, submersion and spraying, 60 DBV and 30 DBV, vs controls"}}, "data": [{"compound": "C=C1C[C@]23C[C@@]1(O)CC[C@H]2[C@@]12C=C[C@H](O)[C@@](C)(C(=O)O1)[C@H]2[C@@H]3C(=O)O", "note": "[GA3, gibberellic acid]", "values": [{"measurement": "Berry cluster compactness", "setting": "[1]", "value": "reduce berry cluster compactness"}, {"measurement": "Fruit set", "setting": "[1]", "value": "reduce fruit set"}]}, {"compound": "C=C1C[C@]23C[C@H]1CCC2[C@@]12CC[C@H](O)C(C)(C(=O)O1)C2[C@@H]3C(=O)O", "note": "(stereo partly drawn) [GA4, gibberellin A4]", "values": [{"measurement": "Harvest yield (average per bunch fresh weight), significance vs controls", "setting": "[2]; 8 rate/method/stage combinations, FIG. 8A", "value": "significantly different from the controls in 5 out of 8 rates"}, {"measurement": "Anthocyanin content per berry skin", "setting": "[2]; [5]", "value": "appreciable increases"}, {"measurement": "Average per bunch fresh weight", "setting": "[2]; [5]", "value": "increased"}, {"measurement": "Dry weight per individual berry", "setting": "[2]; [5]", "value": "tended to be generally increased"}, {"measurement": "Number of berries per bunch", "setting": "[2]; [5]", "value": "increased"}, {"measurement": "Sugar content per berry", "setting": "[2]; [5]", "value": "tended to result in increased"}, {"measurement": "Total polyphenol index (TPI) per berry skin", "setting": "[2]; [5]", "value": "appreciable increases"}]}, {"compound": "C=C1C[C@]23C[C@@]1(O)CC[C@H]2[C@@]12CC=C[C@@](C)(C(=O)O1)[C@H]2[C@@H]3C(=O)O", "note": "[GA5, gibberellin A5]", "values": [{"measurement": "Vegetative growth of shoots (shoot length, number of leaves)", "setting": "[3]; 5, 50, 250 mg/L, bunch dip at 35, 21 and 0 DBV, post-56 DAF to harvest, vs controls, FIGS. 1A-1C", "value": "not significantly affected"}, {"measurement": "Return bloom: number of fruit clusters (bunches) per shoot in the following season", "setting": "[3]; assessed early 2012, FIG. 2C", "value": "no significant effects"}, {"measurement": "Per bunch fresh weight of grape berry bunches", "setting": "[3]; lower GA5 application rates, dip at 56, 70 and 91 DAF, harvested at 132 DAF, FIG. 2A", "value": "significant increases"}, {"measurement": "Number of berries per bunch", "setting": "[3]; lower GA5 application rates, dip at 56, 70 and 91 DAF, harvested at 132 DAF, FIG. 2B", "value": "significant increases"}, {"measurement": "Leaf surface area per shoot", "setting": "[3]; lower concentrations 5 mg/L, 50 mg/L, bunch dip at 35, 21 and 0 DBV, FIG. 1C", "value": "tended to reduce"}, {"measurement": "Shoot length, significance vs Control", "setting": "[4]; 5 mg/L, dip once at 30 DBV, FIG. 3A", "value": "statistically significantly different from the Control"}, {"measurement": "Per bunch fresh weight", "setting": "[4]; 20 mg/L, dip once at 30 DBV, FIG. 4A", "value": "significantly increased"}, {"measurement": "Number of berries per bunch", "setting": "[4]; 20 mg/L, dip once at 30 DBV, FIG. 4B", "value": "significantly increased"}, {"measurement": "Grape yield per plant and per hectare", "setting": "[4]; 20 mg/L, inferred from bunch weight", "value": "appreciably increased"}, {"measurement": "Shoot length", "setting": "[4]; all four treatments 5, 20, 50, 250 mg/L, dip once at 30 DBV, at harvest, FIG. 3A", "value": "decreased"}, {"measurement": "Leaf surface area per shoot", "setting": "[4]; all four treatments 5, 20, 50, 250 mg/L, dip once at 30 DBV, at harvest, FIG. 3B", "value": "decreased"}, {"measurement": "Anthocyanin content per berry skin", "setting": "[2]; [5]", "value": "tended to be generally increased"}, {"measurement": "Average per bunch fresh weight", "setting": "[2]; [5]", "value": "increased"}, {"measurement": "Dry weight per individual berry", "setting": "[2]; [5]", "value": "generally increased"}, {"measurement": "Fresh weight per individual berry", "setting": "[2]; [5]", "value": "generally increased"}, {"measurement": "Number of berries per bunch", "setting": "[2]; [5]", "value": "increased"}, {"measurement": "Sugar content per berry", "setting": "[2]; [5]", "value": "(non-significant) increased"}, {"measurement": "Total polyphenol index (TPI) per berry skin", "setting": "[2]; [5]", "value": "tended to be generally increased"}]}]}
